Where two headings read alike, the source gives them in different places.
Columns and labels:
[1] = tested on: K-RasG12V (Capan-1); assay: Potency assay: cellular pERK (AlphaLISA SureFire or In-Cell Western), Capan-1; assay type: cell-based; details: Homo sapiens; Capan-1 cells; 4 hours; in at least one of the assays (AlphaLISA or In-Cell Western); read-out: pERK IC50 with respect to K-RasG12V (Capan-1)
Source text: The purpose of this assay is to measure the ability of test compounds to inhibit K-Ras in cells. Activated K-Ras induces increased phosphorylation of ERK at Threonine 202 and Tyrosine 204 (PERK). This procedure measures a decrease in cellular pERK in response to test compounds. The procedure described below in Capan-1 cells is applicable to K-RasG12V.
Note: This protocol may be executed substituting other cell lines to characterize inhibitors of other RAS variants, including, for example, NCI-H358 (K-Ras G12C), AsPC-1 (K-Ras G12D), Capan-1 (K-Ras G12V), or NCI-H1355 (K-Ras G13C).
Cells are grown and maintained using media and procedures recommended by the ATCC. On the day prior to compound addition, cells are plated in 384-well cell culture plates (40 μl/well) and grown overnight in a 37° C., 5% CO2 incubator. Test compounds are prepared in 10, 3-fold dilutions in DMSO, with a high concentration of 10 mM. On the day of assay, 40 nL of test compound is added to each well of cell culture plate using an Echo550 liquid handler (LabCyte®). Concentrations of test compound are tested in duplicate. After compound addition, cells are incubated 4 hours at 37° C., 5% CO2. Following incubation, culture medium is removed, and cells are washed once with phosphate buffered saline.
In some experiments, cellular pERK level is determined using the AlphaLISA SureFire Ultra p-ERK1/2 Assay Kit (PerkinElmer). Cells are lysed in 25 μL lysis buffer, with shaking at 600 RPM at room temperature. Lysate (10 μL) is transferred to a 384-well Opti-plate (PerkinElmer) and 5 μL acceptor mix is added. After a 2-hour incubation in the dark, 5 μL donor mix is added, plate is sealed, and incubated 2 hours at room temperature. Signal is read on an Envision plate reader (PerkinElmer) using standard AlphaLISA settings. Analysis of raw data is carried out in Excel (Microsoft) and Prism (GraphPad). Signal is plotted vs. the decadal logarithm of compound concentration, and IC50 is determined by fitting a 4-parameter sigmoidal concentration response model.
In other experiments, cellular pERK is determined by In-Cell Western. Following compound treatment, cells are washed twice with 200 μL tris buffered saline (TBS) and fixed for 15 minutes with 150 μL 4% paraformaldehyde in TBS. Fixed cells are washed 4 times for 5 minutes with TBS containing 0.1% Triton X-100 (TBST) and then blocked with 100 μL Odyssey blocking buffer (LI-COR) for 60 minutes at room temperature. Primary antibody (PERK, CST-4370, Cell Signaling Technology) is diluted 1:200 in blocking buffer, and 50 μL is added to each well and incubated overnight at 4° C. Cells are washed 4 times for 5 minutes with TBST. Secondary antibody (IR-800CW rabbit, LI-COR, diluted 1:800) and DNA stain DRAQ5 (LI-COR, diluted 1:2000) are added and incubated 1-2 hours at room temperature. Cells are washed 4 times for 5 minutes with TBST. Plates are scanned on a Li—COR Odyssey CLx Imager. Analysis of raw data is carried out in Excel (Microsoft) and Prism (GraphPad). Signal is plotted vs. the decadal logarithm of compound concentration, and IC50 is determined by fitting a 4-parameter sigmoidal concentration response model.

Q: Which ring closure, isolated yield (from CO[C@@H](C)c1ncc(N2CCN(C(=O)OCc3ccccc3)CC2)cc1-c1c(CC(C)(C)COC(=O)[C@H]2NN(C(=O)[C@@H](NC(=O)OC(C)(C)C)[C@@H](c3coc(Br)n3)N3CCCC3)C3CC2C3)c2cc(B3OC(C)(C)C(C)(C)O3)ccc2n1CCO[C@H]1CCOC(C)(C)C1, cc_pd bond, 18-membered ring, Pd(DtBPF)Cl2/K3PO4, toluene/dioxane/H2O, 15.9 mM, 80.0 °C, 2.0 h) does the source give for `CO[C@@H](C)c1ncc(N2CCN(C(=O)OCc3ccccc3)CC2)cc1-c1c2c3cc(ccc3n1CCO[C@H]1CCOC(C)(C)C1)-c1nc(co1)[C@@H](N1CCCC1)[C@H](NC(=O)OC(C)(C)C)C(=O)N1N[C@H](C(=O)OCC(C)(C)C2)C2CC1C2` here?
A: The ring closure, isolated yield was 24%.

Q: Which IC50 [1] does the source give for `CO[C@@H](C)c1ncccc1-c1c2c3cc(ccc3n1[C@H]1C[C@@H](C#N)C1)-c1coc(n1)[C@@H](OCc1ccccn1)[C@H](NC(=O)[C@H]1[C@H](C)[C@@H]1C)C(=O)N1N[C@H](C(=O)OCC(C)(C)C2)C2CC1C2` [Example A1174] here?
A: The IC50 was less than 0.65 µM.

Q: For `CO[C@@H](C)c1ncc(N2CCN(C3CC3)CC2)cc1-c1c2c3cc(ccc3n1CCO[C@H]1CCOC(C)(C)C1)-c1coc(n1)[C@@H](N1CC3(COC3)C1)[C@H](NC(=O)OC(C)(C)C)C(=O)N1CC3CC(C3)(N1)C(=O)OCC(C)(C)C2`, which ring closure, isolated yield (from CO[C@@H](C)c1ncc(N2CCN(C3CC3)CC2)cc1-c1c(CC(C)(C)CO)c2cc(-c3coc([C@H]([C@H](NC(=O)OC(C)(C)C)C(=O)N4CC5CC(C(=O)O)(C5)N4)N4CC5(COC5)C4)n3)ccc2n1CCO[C@H]1CCOC(C)(C)C1, ester bond, 18-membered ring, PyBOP/DMAP/DIEA, CH2Cl2, 1.83 mM, 20.0 °C, 15.0 h) is on record?
A: The ring closure, isolated yield was 62.5%.

Q: With `CO[C@@H](C)c1ncccc1-c1c2c3cc(ccc3n1C1CN(C3CC3)C1)-c1csc(n1)[C@@H](N1CC3(CCN3C3COC3)C1)[C@H](NC(=O)[C@@H]1[C@@H](C)[C@H]1c1ccncn1)C(=O)N1CCC[C@H](N1)C(=O)OCC(C)(C)C2` (atropisomer, axis not shown) [Example A1076] as the compound, how does the IC50 [1] read?
A: The IC50 was less than 0.65 µM.

Q: Which ring closure, isolated yield (from CO[C@@H](C)c1ncc(N2CCN(C3CC3)CC2)cc1-c1c(CC(C)(C)CO)c2cc(-c3csc([C@H]([C@H](NC(=O)OC(C)(C)C)C(=O)N4CCC[C@@H](C(=O)O)N4)N4CCCC4)n3)ccc2n1CCOC1CCOCC1, ester bond, 18-membered ring, EDCI/HOBt/DIEA, CH2Cl2, 9.59 mM, 25.0 °C) does the source give for `CO[C@@H](C)c1ncc(N2CCN(C3CC3)CC2)cc1-c1c2c3cc(ccc3n1CCOC1CCOCC1)-c1csc(n1)[C@@H](N1CCCC1)[C@H](NC(=O)OC(C)(C)C)C(=O)N1CCC[C@H](N1)C(=O)OCC(C)(C)C2` here?
A: Its ring closure, isolated yield is 54.7%.

Q: Which ring closure, isolated yield (from CO[C@@H](C)c1ncc(N2CCN(C3CC3)CC2)cc1-c1c(CC(C)(C)CO)c2cc(-c3csc([C@H]([C@H](NC(=O)OC(C)(C)C)C(=O)N4CCC[C@@H](C(=O)O)N4)N4CC5(COC5)C4)n3)ccc2n1CCOC1CCOCC1, ester bond, 18-membered ring, EDCI/HOBt/DIEA, CH2Cl2, 9.35 mM, 25.0 °C) does the source give for `CO[C@@H](C)c1ncc(N2CCN(C3CC3)CC2)cc1-c1c2c3cc(ccc3n1CCOC1CCOCC1)-c1csc(n1)[C@@H](N1CC3(COC3)C1)[C@H](NC(=O)OC(C)(C)C)C(=O)N1CCC[C@H](N1)C(=O)OCC(C)(C)C2` here?
A: Its ring closure, isolated yield is 27.3%.

Q: For `C[C@@H]1OC[C@H](C)OCCn2c(c(CC(C)(C)CO[Si](c3ccccc3)(c3ccccc3)C(C)(C)C)c3cc(Br)ccc32)-c2cccnc21`, which ring closure, isolated yield (from C[C@H](OC[C@H](C)OCCBr)c1ncccc1-c1[nH]c2ccc(Br)cc2c1CC(C)(C)CO[Si](c1ccccc1)(c1ccccc1)C(C)(C)C, amine bond, 11-membered ring, Cs2CO3, DMF, 119.0 mM, 60.0 °C, 1.0 h) is on record?
A: The ring closure, isolated yield was 76.9%.

Q: With `CO[C@@H](C)c1ncccc1-c1c2c3cc(ccc3n1C1CN(C3CC3)C1)-c1csc(n1)[C@@H](N1CC3(CCN3C)C1)[C@H](NC(=O)[C@H]1[C@H](C)[C@@H]1C)C(=O)N1CCC[C@H](N1)C(=O)OCC(C)(C)C2` (atropisomer, axis not shown) [Example A1191] as the compound, how does the IC50 [1] read?
A: Its IC50 is less than 0.65 µM.

Q: Which ring closure, isolated yield (from CO[C@@H](C)c1ncccc1-c1c(CC(C)(C)O)c2cc(-c3csc([C@H]([C@H](NC(=O)OC(C)(C)C)C(=O)N4CCC[C@@H](C(=O)O)N4)N4CCOC[C@@H]4C#N)n3)ccc2n1CCOC1CCOCC1, ester bond, 18-membered ring, EDCI/HOBt/DIEA, CH2Cl2, 10.4 mM, 25.0 °C, 2.0 h) does the source give for `CO[C@@H](C)c1ncccc1-c1c2c3cc(ccc3n1CCOC1CCOCC1)-c1csc(n1)[C@@H](N1CCOC[C@@H]1C#N)[C@H](NC(=O)OC(C)(C)C)C(=O)N1CCC[C@H](N1)C(=O)OC(C)(C)C2` here?
A: Its ring closure, isolated yield is 31%.

Q: With “tert-butyl ((6^3S,3R,4S)-1^2-(5-(4-cyclopropylpiperazin-1-yl)-2-((S)-1-methoxyethyl)pyridin-3-yl)-3-ethoxy-10,10-dimethyl-5,7-dioxo-1^1-(2-((tetrahydro-2H-pyran-4-yl)oxy)ethyl)-6^1,6^2,6^3,6^4,6^5,6^6-hexahydro-1^1H-8-oxa-2 (5,2)-oxazola-1(5,3)-indola-6(1,3)-pyridazinacycloundecaphane-4-yl) carbamate” as the compound, how does the ring closure, isolated yield (cc_pd bond, 18-membered ring, XPhos Pd G3/XPhos/K3PO4, toluene/dioxane/H2O, 53.0 mM, 80.0 °C) read?
A: Its ring closure, isolated yield is 16.3%.

Q: Which IC50 [1] does the source give for `CO[C@@H](C)c1ncccc1-c1c2c3cc(ccc3n1[C@H]1C[C@@H](C#N)C1)-c1csc(n1)[C@@H](N1CC3(CCCN3C)C1)[C@H](NC(=O)[C@H]1[C@H](C)[C@@H]1C)C(=O)N1CCC[C@H](N1)C(=O)OCC(C)(C)C2` (atropisomer, axis not shown) [Example A983] here?
A: Its IC50 is less than 0.65 µM.

Q: Which ring closure, isolated yield (from CO[C@@H](C)c1ncc([C@@H]2CCN(C3CC3)C2)cc1-c1c(CC(C)(C)CO)c2cc(-c3csc([C@H]([C@H](NC(=O)OC(C)(C)C)C(=O)N4CCC[C@@H](C(=O)O)N4)N4CC(C)(OC)C4)n3)ccc2n1CCOC1CCOCC1, ester bond, 18-membered ring, EDCI/HOBt/DIEA, CH2Cl2, 9.4 mM, 25.0 °C, 16.0 h) does the source give for `CO[C@@H](C)c1ncc([C@@H]2CCN(C3CC3)C2)cc1-c1c2c3cc(ccc3n1CCOC1CCOCC1)-c1csc(n1)[C@@H](N1CC(C)(OC)C1)[C@H](NC(=O)OC(C)(C)C)C(=O)N1CCC[C@H](N1)C(=O)OCC(C)(C)C2` here?
A: Its ring closure, isolated yield is 43.6%.

Q: Which IC50 [1] does the source give for `CO[C@@H](C)c1ncccc1-c1c2c3cc(ccc3n1C1CN(C3CC3)C1)-c1coc(n1)[C@@H](N1CCN(C)CC1)[C@H](NC(=O)[C@@H]1[C@@H](C)[C@H]1c1ccncn1)C(=O)N1CCC[C@H](N1)C(=O)OCC(C)(C)C2` (atropisomer, axis not shown) [Example A1104] here?
A: The IC50 was less than 0.65 µM.

Q: Which IC50 [1] does the source give for `CO[C@@H](C)c1ncccc1-c1c2c3cc(ccc3n1[C@H]1C[C@@H](C#N)C1)-c1csc(n1)[C@@H](N1CC3(CCCN3)C1)[C@H](NC(=O)[C@H]1[C@H](C)[C@@H]1C)C(=O)N1CCC[C@H](N1)C(=O)OCC(C)(C)C2` (atropisomer, axis not shown) [Example A1168] here?
A: Its IC50 is less than 0.65 µM.

Q: With “tert-butyl ((6^4S,3S,4S,Z)-12-(5-(4-cyclopropylpiperazin-1-yl)-2-((S)-1-methoxyethyl)pyridin-3-yl)-10,10-dimethyl-3-morpholino-5,7-dioxo-11-(2-((tetrahydro-2H-pyran-4-yl)oxy)ethyl)-11H-8-oxa-6^2,6^3-diaza-2(4,2)-thiazola-1(5,3)-indola-6 (2,4)-bicyclo[3.1.1]heptanacycloundecaphane-4-yl) carbamate” as the compound, how does the ring closure, isolated yield (ester bond, 18-membered ring, EDCI/HOBt/DIEA, CH2Cl2, 4.68 mM, 30.0 °C) read?
A: The ring closure, isolated yield was 41%.

Q: For `CO[C@@H](C)c1ncccc1-c1c2c3cc(ccc3n1CCO[C@H]1CCOC(C)(C)C1)-c1coc(n1)C[C@H](NC(=O)OC(C)(C)C)C(=O)N1N[C@H](C(=O)OCC(C)(C)C2)C2CC1C2`, which ring closure, isolated yield (from CO[C@@H](C)c1ncccc1-c1c(CC(C)(C)CO)c2cc(-c3coc(C[C@H](NC(=O)OC(C)(C)C)C(=O)N4N[C@H](C(=O)O)C5CC4C5)n3)ccc2n1CCO[C@H]1CCOC(C)(C)C1, ester bond, 18-membered ring, EDCI/HOBt/DIEA, MeCN, 11.5 mM, 35.0 °C, 2.0 h) is on record?
A: Its ring closure, isolated yield is 30.6%.

Q: With `CO[C@@H](C)c1ncc(N2CCN(C3CC3)CC2)cc1-c1c2c3cc(ccc3n1CCOC1CCOCC1)-c1csc(n1)[C@@H](N1CC3(COC3)C1)[C@H](NC(=O)[C@@H]1[C@@H](C)[C@H]1C(=O)N1CCN(C)CC1)C(=O)N1CCC[C@H](N1)C(=O)OCC(C)(C)C2` (atropisomer, axis not shown) [Example A1083] as the compound, how does the IC50 [1] read?
A: The IC50 was less than 0.65 µM.

— patent US20250154171A1, “RAS INHIBITORS” (Revolution Medicines, Inc., priority 2023, published 2025)
